This note sets out measurements from patent publication US20150037821A1, “METHODS OF IDENTIFYING HIT-ANTIBODIES AND PF4 ANTAGONISTS AND CELL LINES FOR USE THEREIN” (THE TRUSTEES OF THE UNIVERSITY OF PENNSYLVANIA, priority 2012, published 2015).

A value given as a limit tells only on which side of the number the result lay.

In test [1] the target is T1, PF4 (Homo sapiens, UniProt P02776).
T1 construct: platelet factor 4 which is a 70 amino acid, lysine-rich, 7.8 kDa platelet-specific protein; made in house; host or cells: Drosophila Schneider 2 (S2) cells
T1 sequence (P02776 32-101): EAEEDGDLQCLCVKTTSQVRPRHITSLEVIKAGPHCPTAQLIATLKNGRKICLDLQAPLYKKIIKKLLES
Kind of test: DT40 cell (FcγRIIA + NFAT-Luc reporter) activation assay: inhibition by PF4 antagonists. In kind it is cell-based. As to conditions: for IC50: PF4 10 μg/mL, heparin 0.3 U/mL, KKO 20 μg/mL, luciferase readout after 6 hours; for inhibition of FcγRIIA-dependent cellular activation (in words): activation by KKO, dose-response, FIG. 1C. As for the experimental part: DT40 cells (chicken B cells) were cultured in RPMI supplemented with 10% fetal bovine serum, 1% chicken serum (Gibco), 50 μM 13-mercaptoethanol, 2 mM GlutaMAX (Gibco), 100 U/mL penicillin and 100 U/mL streptomycin at 37° C. under 5% CO2. Cells were co-transfected with 5 μg pEF6-FcγRIIA and 20 μg pEF6-NFAT-Luc by electroporation. Positive transformants were selected using blastidicin.
On day following transfection, cells were pelleted by centrifugation and re-suspended at 2×10^6 cells/mL in fresh medium without serum. Cell aliquots (50 μL) were placed into each well of a 96 well plate. To establish basal expression, 50 μL media was added. Further, the cells were also incubated independently with the following: PF4, heparin, RTO antibody, KKO antibody, ULCs alone, ULCs and RTO; ULCs and KKO and IV.3 antibody. Monoclonal antibody IV.3 (an FcγRIIA-blocking antibody) was used in combination with an anti-Fc antibody to activate FcγRIIA bound by IV.3 as a positive control for FcγRIIA signaling. 8 μg/mL of IV.3 was added for 15 minutes at 37° C. under 5% CO2, followed by 50 μL of sheep anti-mouse-IgG secondary antibody at 15 μg/mL to crosslink and activate these receptors. As a positive control for an intact intracellular signaling pathway, phorbol myristate acetate (PMA; 25 ng/mL) with ionomycin (1 μM) was added (not shown).
We then used this assay to measure the inhibitory capacity of the PF4 antagonist compounds described in the concurrently filed related application referenced above. PF4 (10 μg/mL) and various concentrations of potential antagonists were co-incubated for 60 min at 37° C. under 5% CO2 followed by the addition of heparin (0.3 U/mL) for 15 min at 37° C. in 5% CO2. KKO (20 μg/mL) or plasma from patients with serotonin release assay confirmed HIT (1:800 dilution) was then added. 50 μL of each mixture was added to the 96 well plate containing 50 μL of cells at a concentration of 2×10^6 cells/mL in fresh medium without serum. Plates were incubated for 6 hours at 37° C. under 5% CO2, and then frozen at −80° C. To measure activation, cells were thawed and lysed with 5× Passive Lysis Buffer (Promega) for 15 minutes. Luciferase activity was measured on a Berthold MultiLumat LB 9506 Luminometer (10 sec readings) using Promega's Luciferase Assay Reagent following the manufacturer's instructions. In other experiments, PF4 antagonists discussed herein were incubated with PF4 for 5 minutes with the same results.

For test [2], the system named is platelets. Put plainly: Serotonin release assay with 14C-labeled platelets. The class given is cell-based, human. As to conditions: for inhibition of platelet activation by KKO (release of 14C-serotonin): KKO 170 μg/mL, heparin 1.0 U/mL, antagonists 2.5 mM, FIG. 1E. On the procedure: To confirm the results of the novel assay, an independent, orthogonal assessment of activity was performed using a serotonin release assay. Serotonin release assays are described in Hirschman, “The use of platelet serotonin release as a sensitive method for detecting anti-platelet antibodies and a plasma anti-platelet factor in patients with idiopathic thrombocytopenic purpura”, Br. J. Haematol., 24(6):793-802 (1973), and Rauova and Cines, “Heparin-associated thrombocytopenia”, N. Engl. J. Med., 303:788-795 (1980), which are hereby incorporated by reference.
Briefly, platelet rich plasma (PRP) from healthy donors was incubated with 0.5 μL ^14C-5-hydroxytryptamine creatinine sulfate (GE Life Sciences, Piscataway, N.J.) per milliliter of PRP for 20 minutes at 37° C. to produce ^14C-labeled platelets. Serotonin uptake was inhibited by adding […] imipramine (Sigma-Aldrich, St. Louis, Mo.) to the PRP.
The radiolabeled platelets were mixed with KKO (170 μg/mL) or with known platelet-activating HIT plasma in the absence (buffer control) or presence of PF4 antagonist compounds 1, 34, 80, 101, and 96. Assays were performed in the presence of heparin (1.0 U/mL) and in the absence of heparin (background). Negative controls without antibody were studied in parallel. Data are expressed as % maximal release of radioactivity with release by the positive control plasma and 1.0 U/mL heparin defined as 100%.

The test system of test [3] is FcγRIIA. Put plainly: Activation of DT40 cells transfected with FcγRIIA and a Luc reporter. In kind it is cell-based, human. The following applies: FIG. 1A. On the procedure:
B cells used in the novel assays of the invention were prepared as follows. NFAT-Luc was kindly provided by Prof Arthur Weiss (Shapiro, “c-rel Regulation of IL-2 gene expression may be mediated through activation of AP-1”, J. Exp. Med., 184(5):1663-1669 (1996), hereby incorporated by reference). The NFAT reporter contains three copies of a composite NFAT-activator protein-1 (AP-1) element from the human interleukin-2 (IL-2) gene promoter, and is activated by binding of NFAT (nuclear factor of activated T-cells). pEF6-FcγRIIA, which contains the human FcγRIIA coding sequence under the control of the human EF-1a promoter, was constructed by cloning a human FcγRIIA IMAGE clone into the multiple cloning site of pEF6c (Invitrogen).
DT40 cells (chicken B cells) were cultured in RPMI supplemented with 10% fetal bovine serum, 1% chicken serum (Gibco), 50 μM 13-mercaptoethanol, 2 mM GlutaMAX (Gibco), 100 U/mL penicillin and 100 U/mL streptomycin at 37° C. under 5% CO2. Cells were co-transfected with 5 μg pEF6-FcγRIIA and 20 μg pEF6-NFAT-Luc by electroporation. Positive transformants were selected using blastidicin. […]
It was next examined whether FcγRIIA activation was heparin-dependent. To do so, activation by KKO was measured using a constant amount of PF4 and increasing amounts of heparin. […]

For `CC(=O)C1=C(O)c2cc([N+](=O)[O-])ccc2C1=O` [Compound 1], the concentration for half-maximal inhibition (IC50) in test [1] was found to be 33 µM.
For the molecule `O=C1CC([PH](=O)O)CO1` (stereo not shown) [Compound 34], in test [1], the IC50 was greater than 500 µM and the “inhibition of FcγRIIA-dependent cellular activation (in words)” value (from here on “inhibition … (in words)”) was “not inhibitory”.
Take `O=C(O)CCc1ccc(-c2ccc(Cl)cc2)n1CC(=O)O` [Compound 80]: in test [1], the half-inhibitory concentration (IC50) was determined as 440 µM and the “inhibition … (in words)” value is listed as “less potent”. Moreover, in test [2], the “inhibition of platelet activation by KKO (release of 14C-serotonin)” value is given as “inhibited”.
On the same counts, the results for `O=C(O)c1ccccc1OP(=O)(O)O` [Compound 96] are 500 µM, “less potent” and “inhibited”.
For `CCOC(=O)Cn1c(CCC(=O)O)ccc1-c1ccc(Cl)cc1` [Compound 101], the “inhibition of DT40 activation by human HIT plasma” value in test [1] (HIT plasma 1:800 dilution, similar potency as activation by KKO, FIG. 1D) is on record as “inhibited”. Moreover, in test [1], the concentration for half-maximal inhibition (IC50) is 100 µM and the “inhibition … (in words)” value is reported as “complete inhibition”. For the same molecule, the “inhibition of DT40 activation by KKO and patient samples” value in test [1] (antagonist concentration 500 μM, KKO and plasma from three HIT patients, FIG. 1D) is “completely inhibited”. Besides, the “inhibition of serotonin release from platelets activated by plasma from patients with HIT” value in test [2] (HIT plasma, several antagonist concentrations, FIG. 1F) was “inhibited”. Moreover, in test [2], the “inhibition of platelet activation by KKO (release of 14C-serotonin)” value is on record as “inhibited”.

B1: PF4: platelet factor 4, 70 amino acid, lysine-rich 7.8 kDa platelet-specific CXC chemokine protein (protein, UniProt P02776 32-101, looked up)
Platelet factor 4: EAEEDGDLQCLCVKTTSQVRPRHITSLEVIKAGPHCPTAQLIATLKNGRKICLDLQAPLYKKIIKKLLES
As for B1, in test [3], the “activation of FcγRIIA-expressing DT40 cells, substance added alone” value is “did not activate”.
